Series [1] has as its system HDAC. The series can be described thus: HDAC inhibition. Format: biochemical. The conditions noted are these: for HDAC Inhibition 1 μM: compound at 1 μM; for HDAC Inhibition 10 μM: compound at 10 μM.
The test system of series [2] is NCIH460. Nature of the series: Anti-cancer screen (MTT), NCIH460. Format: cell-based. The note with it: Homo sapiens, NCI-H460, 48 hours with compound, tested at 0.01-100 µM. The method in brief:
(§1)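 GI50, TGI and LC50 derived from % growth, normalized to untreated wells and a time-zero plate read at compound addition. Compound applied for 48 h at five concentrations (0.01–100 μM) to 5000 cells/well in DMEM with 10% FBS; viability by 3 h MTT, read at 570 nm.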

In series [3] the test system is HCT116. Nature of the series: Anti-cancer screen (MTT), HCT116. Format: cell-based. The note with it: Homo sapiens, HCT-116, 48 hours with compound, tested at 0.01-100 µM. In a few lines: as §1
Series [4] has as its system MDAMB-231/U 251. The series can be described thus: Anti-cancer screen (MTT), MDAMB-231/U 251. Format: cell-based. The note with it: for CC50: 48 h, read-out: MDAMB-231/U 251 LC50; for GI50 / IC (TGI): 48 hours with compound, MTT, tested at 0.01-100 µM. The method in brief:
as §1

Series [5] has as its system NCIH460, HCT116, MDAMB-231/U 251. The series can be described thus: Anti-cancer screen, mean GI50 over the cell lines. The note with it: in µM. Format: cell-based. In a few lines:
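Growth was scored by MTT absorbance at 570 nm relative to control wells and a pre-treatment T0 reading. Compounds were tested at five final concentrations (0.01–100 µM, triplicate) for 48 h on NCIH460, HCT116 and U251 cells, each plated at 5000 cells/well 24 h before dosing.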

The source of these data is patent publication US20100152188A1, “Novel Heterocyclic Compounds” (priority 2005, published 2010).

As for `O=C(NCc1ccc(C(=O)N2CCN(c3ccccn3)CC2)cc1)OCc1cccs1` [Example 71, 2-Thienylmethyl{4-[(4-pyridin-2-ylpiperazin-1-yl)carbonyl]benzyl}carbamate], the melting point (in general, the temperature, or range, at which the solid turns liquid) is 129.3 to 130.3 °C. In addition, in series [1], the “HDAC Inhibition 1 μM” value is reported as 9.14 and the “HDAC Inhibition 10 μM” value was 7.67.
As for `O=C(CCCCCNC(=O)Cc1csc(NC(=O)OCc2nc3ccccc3s2)n1)NO` [Example 90, 1,3-Benzothiazol-2-ylmethyl[4-(2-{[6-(hydroxyamino)-6-oxohexyl]amino}-2-oxoethyl)-1,3-thiazol-2-yl]carbamate], in series [2], the GI50 (usually the concentration giving 50% growth inhibition) stood at 38 µM, the IC (TGI) came to 98 µM and the LC50 (commonly the concentration that kills 50% of the test population) was over 100 µM. In addition, in series [3], the concentration for 50% growth inhibition (GI50) was 38 µM, the IC (TGI) is 65 µM and the LC50 (concentration giving 50% net cell kill relative to T0) was over 100 µM. In series [4], the CC50 was 98 µM, the GI50 came out at 0.06 µM and the IC (TGI) was determined as 48 µM. Also, in series [5], the “Mean GI50” value was found to be 25.35. Besides, in series [1], the “HDAC Inhibition 1 μM” value came to 61.63 and the “HDAC Inhibition 10 μM” value came to 98.85.
As to `O=C(CCCNC(=O)Cc1csc(NC(=O)OCc2nc3ccccc3s2)n1)NO` [Example 91, 1,3-Benzothiazol-2-ylmethyl[4-(2-{[4-(hydroxyamino)-4-oxobutyl]amino}-2-oxoethyl)-1,3-thiazol-2-yl]carbamate], in series [2], the GI50 was 35 µM, the IC (TGI) was over 100 µM and the LC50 is over 100 µM. In series [3], the GI50 amounted to 51 µM, the IC (TGI) was over 100 µM and the LC50 (concentration giving 50% net cell kill relative to T0) is over 100 µM. Also, in series [4], the CC50 was over 100 µM, the GI50 is 21 µM and the IC (TGI) was determined as 89 µM. Also, the “Mean GI50” value in series [5] was found to be 35.7. Moreover, in series [1], the “HDAC Inhibition 1 μM” value is listed as 10.73 and the “HDAC Inhibition 10 μM” value is 25.05.
For the compound `O=C(CCCCNC(=O)Cc1csc(NC(=O)OCc2nc3ccccc3s2)n1)NO` [Example 93, 1,3-Benzothiazol-2-ylmethyl[4-(2-{[5-(hydroxyamino)-5-oxopentyl]amino}-2-oxoethyl)-1,3-thiazol-2-yl]carbamate], in series [2], the GI50 came to 50 µM, the IC (TGI) was over 100 µM and the LC50 is over 100 µM. In series [3], the GI50 worked out at 40 µM, the IC (TGI) is 88 µM and the LC50 (concentration giving 50% net cell kill relative to T0) was over 100 µM. Moreover, in series [4], the CC50 is over 100 µM, the GI50 was determined as 7 µM and the IC (TGI) came out at 55 µM. In series [5], the “Mean GI50” value amounted to 32.3. Further, in series [1], the “HDAC Inhibition 1 μM” value is listed as 26.26 and the “HDAC Inhibition 10 μM” value is given as 76.23.
As to `O=C(CCCNC(=O)Cc1csc(NC(=O)OCc2nccs2)n1)NO` [Example 95, 1,3-Thiazol-2-ylmethyl[4-(2-{[4-(hydroxyamino)-4-oxobutyl]amino}-2-oxoethyl)-1,3-thiazol-2-yl]carbamate], in series [2], the GI50 was 93 µM, the IC (TGI) is over 100 µM and the LC50 was over 100 µM. Further, in series [3], the GI50 was over 100 µM, the IC (TGI) was over 100 µM and the LC50 (concentration giving 50% net cell kill relative to T0) is over 100 µM. Further, in series [4], the CC50 is over 100 µM, the GI50 is over 100 µM and the IC (TGI) was over 100 µM. Further, the “Mean GI50” value in series [5] was over 100. Besides, in series [1], the “HDAC Inhibition 1 μM” value was −2.89 and the “HDAC Inhibition 10 μM” value was 4.19.
With `O=C(CCCCCNC(=O)Cc1csc(NC(=O)OCc2nccs2)n1)NO` [Example 96, 1,3-Thiazol-2-ylmethyl[4-(2-{[6-(hydroxyamino)-6-oxohexyl]amino}-2-oxoethyl)-1,3-thiazol-2-yl]carbamate], in series [2], the GI50 was over 100 µM, the IC (TGI) is over 100 µM and the LC50 is over 100 µM. Besides, in series [3], the GI50 was over 100 µM, the IC (TGI) was over 100 µM and the LC50 (concentration giving 50% net cell kill relative to T0) is over 100 µM. In series [4], the CC50 was over 100 µM, the GI50 amounted to 70 µM and the IC (TGI) was over 100 µM. Besides, the “Mean GI50” value in series [5] was over 100. In series [1], the “HDAC Inhibition 1 μM” value was found to be 52.41 and the “HDAC Inhibition 10 μM” value turned out to be 86.63.
Take `O=C(CCCNC(=O)Cc1csc(NC(=O)OCc2ccncc2)n1)NO` [Example 97, Pyridin-4-ylmethyl[4-(2-{[4-(hydroxyamino)-4-oxobutyl]amino}-2-oxoethyl)-1,3-thiazol-2-yl]carbamate]: in series [2], the GI50 was found to be 100 µM, the IC (TGI) is over 100 µM and the LC50 was over 100 µM. Further, in series [3], the GI50 is over 100 µM, the IC (TGI) was over 100 µM and the LC50 (concentration giving 50% net cell kill relative to T0) is over 100 µM. In series [4], the CC50 is over 100 µM, the GI50 is over 100 µM and the IC (TGI) was over 100 µM. For the same compound, the “Mean GI50” value in series [5] was over 100. In series [1], the “HDAC Inhibition 1 μM” value was determined as 5.02 and the “HDAC Inhibition 10 μM” value was 5.80.
Compound `O=C(NCc1ccc(C(=O)N2CCC[C@H]2C(=O)NO)cc1)OCc1cccs1` [Example 99, 2-Thienylmethyl[4-({(2S)-2-[(hydroxyamino)carbonyl]pyrrolidin-1-yl}carbonyl)benzyl]carbamate] returned a melting point of 90.6 to 91.5 °C.
With `O=C(Cc1csc(NC(=O)c2ccc(CNC(=O)OCc3cccs3)cc2)n1)NO` [Example 101, 2-Thienylmethyl{4-[({4-[2-(hydroxyamino)-2-oxoethyl]-1,3-thiazol-2-yl}amino)carbonyl]benzyl}carbamate], in series [2], the GI50 was over 100 µM, the IC (TGI) was over 100 µM and the LC50 was over 100 µM. Besides, in series [3], the GI50 amounted to 14 µM, the IC (TGI) was over 100 µM and the LC50 (concentration giving 50% net cell kill relative to T0) was over 100 µM. Moreover, in series [4], the CC50 was over 100 µM, the GI50 was over 100 µM and the IC (TGI) is over 100 µM. Besides, the “Mean GI50” value in series [5] was over 100. Further, in series [1], the “HDAC Inhibition 1 μM” value stood at 8.52 and the “HDAC Inhibition 10 μM” value is recorded as 45.50.
On to `O=C(CCCCCNC(=O)c1ccc(CNC(=O)OCc2cccs2)cc1)NO` [Example 102, 2-Thienylmethyl[4-({[6-(hydroxyamino)-6-oxohexyl]amino}carbonyl)benzyl]carbamate], for which, in series [2], the GI50 came to 5 µM, the IC (TGI) amounted to 9.5 µM and the LC50 came to 100 µM. Further, in series [3], the GI50 stood at 4.8 µM, the IC (TGI) was 10 µM and the LC50 (concentration giving 50% net cell kill relative to T0) is over 100 µM. In series [4], the CC50 was found to be 60 µM, the GI50 turned out to be 4.8 µM and the IC (TGI) was 9.5 µM. In addition, the “Mean GI50” value in series [5] was determined as 4.9. Also, in series [1], the IC50 – broadly, the midpoint of a concentration-inhibition curve – was determined as 0.25 µM; the “HDAC Inhibition 1 μM” value is given as 79.08; the “HDAC Inhibition 10 μM” value is 85.52.
Take `O=C(NCc1ccc(C(=O)Nc2ccccc2NC(=O)c2ccc3c(c2)OCO3)cc1)OCc1cccs1` [Example 106, 2-thienylmethyl(4-[({(2-{1,3-benzodioxol-5-ylcarbonyl}amino)-phenyl}amino)carbonyl]benzyl)carbamate]: in series [2], the GI50 came to 0.44 µM, the IC (TGI) stood at 107 µM and the LC50 is over 100 µM. In series [3], the GI50 was over 100 µM, the IC (TGI) was over 100 µM and the LC50 (concentration giving 50% net cell kill relative to T0) is over 100 µM. Further, in series [4], the CC50 is over 100 µM, the GI50 is 5.2 µM and the IC (TGI) is over 100 µM. The “Mean GI50” value in series [5] worked out at 2.8. Moreover, in series [1], the “HDAC Inhibition 1 μM” value is 2.1 and the “HDAC Inhibition 10 μM” value came to 7.2.
On to `O=C(CSC(F)F)Nc1cccc(NC(=O)c2ccc(CNC(=O)OCc3cccs3)cc2)c1` [Example 108, 2-Thienylmethyl[4-({[3-({[(difluoromethyl)thio]acetyl}amino)phenyl]amino}carbonyl)benzyl]carbamate], for which, in series [2], the GI50 was 9.5 µM, the IC (TGI) is over 100 µM and the LC50 was over 100 µM. In series [3], the GI50 came to 100 µM, the IC (TGI) was over 100 µM and the LC50 (concentration giving 50% net cell kill relative to T0) is over 100 µM. In series [4], the CC50 is over 100 µM, the GI50 amounted to 5 µM and the IC (TGI) was 15 µM. Also, the “Mean GI50” value in series [5] is listed as over 100. In addition, in series [1], the “HDAC Inhibition 1 μM” value was −8.74 and the “HDAC Inhibition 10 μM” value is −0.86.
Turning to `N/C(=N/O)c1ccc(NC(=O)OCc2cccs2)cc1` [Example 110, 2-thienylmethyl{4-[(E)-amino(hydroxyimino)-methyl]-phenyl}-carbamate], in series [2], the GI50 is over 100 µM, the IC (TGI) is over 100 µM and the LC50 was over 100 µM. Further, in series [3], the GI50 worked out at 80 µM, the IC (TGI) was over 100 µM and the LC50 (concentration giving 50% net cell kill relative to T0) is over 100 µM. Besides, in series [4], the CC50 is over 100 µM, the GI50 was 10 µM and the IC (TGI) was over 100 µM. Besides, the “Mean GI50” value in series [5] was over 100. Further, in series [1], the “HDAC Inhibition 1 μM” value came to 17.50 and the “HDAC Inhibition 10 μM” value is reported as 52.34.
